Reference: patent publication US9101628B2, “Methods and composition of treating a flaviviridae family viral infection” (The Board of Trustees of the Leland Stanford Junior …, priority 2007, dated 2015)

Tested on: HCV RNA replication
Assay: RNA replication inhibition assay (luciferase reporter-linked HCV genome)
Conditions: Hepatitis C virus, percentage of untreated control population; for activity at 5 µM: read-out: Residual Luciferase activity, 5 micromolar; for activity at 10 µM: read-out: Residual Luciferase activity, 10 micromolar

Structure (SMILES)	activity at 5 µM [%]	activity at 10 µM [%]
CCCN(CCC)Cc1nc2ccccc2n1Cc1ccc(Cl)cc1 [Compound 5]	< 80	< 55
COCC1CCN(Cc2nc3ccccc3n2Cc2ccc(Cl)cc2)C1 (centres unmarked) [Compound 6]	> 80	< 80
COC(=O)C1CCN(Cc2nc3ccccc3n2Cc2ccc(Cl)cc2)C1 (centres unmarked) [Compound 7]	> 80	> 80
COC(=O)C1CCCN1Cc1nc2ccccc2n1Cc1ccc(Cl)cc1 (centres unmarked) [Compound 8]	< 55	< 55
COCC1CCCN1Cc1nc2ccccc2n1Cc1ccc(Cl)cc1 (centres unmarked) [Compound 10]	< 80	< 80
O=C1CCCN1Cc1nc2ccccc2n1Cc1ccc(Cl)cc1 [Compound 12]	< 80	< 80
COC(=O)c1ccc(Cn2c(CN3CCCC3)nc3ccccc32)cc1 [Compound 14]	< 80	< 80
O=C(O)c1ccc(Cn2c(CN3CCCC3)nc3ccccc32)cc1 [Compound 15]	> 80	> 80
COC(=O)c1cccc(Cn2c(CN3CCCC3)nc3ccccc32)c1 [Compound 16]	> 80	> 80
O=C(O)c1cccc(Cn2c(CN3CCCC3)nc3ccccc32)c1 [Compound 17]	> 80	> 80
Clc1cccc(Cn2c(CN3CCCC3)nc3ccccc32)c1 [Compound 18]	< 80	< 80
Clc1ccccc1Cn1c(CN2CCCC2)nc2ccccc21 [Compound 19]	> 80	> 80
c1ccc2c(c1)nc(CN1CCCC1)n2Cc1ccncc1 [Compound 20]	> 80	> 80
c1cncc(Cn2c(CN3CCCC3)nc3ccccc32)c1 [Compound 21]	> 80	> 80
c1ccc2c(c1)nc(CN1CCCC1)n2CC1CCCCC1 [Compound 22]	> 80	< 80
O[C@H]1CCN(Cc2nc3ccccc3n2Cc2ccc(Cl)cc2)C1 [Compound 23]	> 80	> 80
O[C@@H]1CCN(Cc2nc3ccccc3n2Cc2ccc(Cl)cc2)C1 [Compound 24]	> 80	> 80
OC[C@@H]1CCCN1Cc1nc2ccccc2n1Cc1ccc(Cl)cc1 [Compound 25]	< 80	< 55
CC1CCC(C)N1Cc1nc2ccccc2n1Cc1ccc(Cl)cc1 (centres unmarked) [Compound 26]	> 80	> 80
Clc1ccc(Cn2c(CN3CCCCCC3)nc3ccccc32)cc1 [Compound 27]	< 80	< 55
Cc1ccc2c(c1)nc(CN1CCCC1)n2Cc1ccc(Cl)cc1 [Compound 28]	> 80	< 55
COCC1CCCN1Cc1nc2cc(C)ccc2n1Cc1ccc(Cl)cc1 (centres unmarked) [Compound 29]	> 80	< 55
COCC1CCCN1Cc1nc2c(C)c(C)ccc2n1Cc1ccc(Cl)cc1 (centres unmarked) [Compound 31]	< 80	< 55
Clc1ccc(Cn2c(CN3CCCC3)nc3ccccc32)s1 [Compound 32]	< 80	< 80
Cc1ccc2c(nc(CN3CCCC3=O)n2Cc2ccc(Cl)cc2)c1C [Compound 33]	> 80	> 80
CC(=O)N1CCCC(Cn2c(CN3CCCC3)nc3ccccc32)C1 (centres unmarked) [Compound 34]	> 80	> 80
CS(=O)(=O)N1CCCC(Cn2c(CN3CCCC3)nc3ccccc32)C1 (centres unmarked) [Compound 35]	> 80	> 80

Structure (SMILES)	activity at 5 µM [%]	activity at 10 µM [%]
c1ccc2c(c1)nc(CN1CCCC1)n2CC1CCNCC1 [Compound 36]	< 80	> 80
CC(=O)N1CCC(Cn2c(CN3CCCC3)nc3ccccc32)CC1 [Compound 37]	< 80	> 80
CS(=O)(=O)N1CCC(Cn2c(CN3CCCC3)nc3ccccc32)CC1 [Compound 38]	< 80	> 80
c1ccc2c(c1)nc(CN1CCCC1)n2CC1CCCNC1 (centres unmarked) [Compound 39]	< 80	< 80
Cc1ccc(Cn2c(CN3CCCC3)nc3ccccc32)cc1 [Compound 40]	< 80	< 80
CC(C)c1ccc(Cn2c(CN3CCCC3)nc3ccccc32)cc1 [Compound 41]	< 80	< 80
FC(F)Oc1ccc(Cn2c(CN3CCCC3)nc3ccccc32)cc1 [Compound 42]	> 80	< 80
Clc1ccc(Cn2c(-c3cncs3)nc3ccccc32)cc1 [Compound 43]	< 80	< 55
O=C(O)c1ccc2c(c1)ncn2Cc1ccc(Cl)cc1 [Compound 44]	< 80	> 80
O=C(O)c1ccc2ncn(Cc3ccc(Cl)cc3)c2c1 [Compound 45]	> 80	> 80
Clc1ccc(CCn2cnc3ccccc32)cc1 [Compound 46]	> 80	< 80
Cc1cc2nc(CN3CCC[C@H]3CO)n(Cc3ccc(Cl)cc3)c2cc1C [Compound 47]	< 80	< 80
Cc1cc2nc(CN3CCC[C@@H]3CO)n(Cc3ccc(Cl)cc3)c2cc1C [Compound 48]	> 80	< 80
Cc1cc2nc(CN3CCCC3C)n(Cc3ccc(Cl)cc3)c2cc1C (centres unmarked) [Compound 49]	< 55	< 55
Cc1cc2nc(CN3CCC[C@H]3CN3CCCC3)n(Cc3ccc(Cl)cc3)c2cc1C [Compound 50]	< 20	< 20
Cc1cc2nc(CN3CCCC3c3ccccn3)n(Cc3ccc(Cl)cc3)c2cc1C (centres unmarked) [Compound 51]	< 20	< 20
Cc1cc2nc(CN3CCCC3C(N)=O)n(Cc3ccc(Cl)cc3)c2cc1C (centres unmarked) [Compound 52]	< 80	< 80
Cc1ccc2c(c1)ncn2Cc1ccc(Cl)cc1 [Compound 53]	< 55	< 20
Fc1cc2ncn(Cc3ccc(Cl)cc3)c2cc1Cl [Compound 55]	< 80	< 80
COc1ccc2c(c1)ncn2Cc1ccc(Cl)cc1 [Compound 56]	< 80	< 55
COc1cc2ncn(Cc3ccc(Cl)cc3)c2cc1OC [Compound 57]	< 80	< 55
Clc1ccc(Cn2cnc3cc(Cl)ccc32)cc1 [Compound 58]	< 80	
Cc1ccc2c(ncn2Cc2ccc(Cl)cc2)c1C [Compound 59]	< 55	< 55
Oc1ccc2c(c1)ncn2Cc1ccc(Cl)cc1 [Compound 60]	< 20	< 20
Oc1ccc2ncn(Cc3ccc(Cl)cc3)c2c1 [Compound 61]	> 80	< 80
Cc1cc2nc(CN3CCCC3=O)n(Cc3ccc(Cl)cc3)c2cc1C [Compound 63]	< 80	> 80
Clc1ccc(Cn2cnc3cc4c(cc32)OCCO4)cc1 [Compound 64]	< 80	< 80
